Seven compounds from patent US20220125745A1, “PHARMACEUTICAL COMPOSITION FOR CO-ADMINISTRATION OF ACIDOSIS-INDUCING DRUG” (HAIM BIO CO., LTD., priority 2018, published 2022) can be followed below.

Where two headings read alike, the source gives them in different places.

Experiment [1] has as its system A549 cells (cancer cells). The experiment is described as follows: Lactate assay (luminescence) in A549 cells, candidate substance alone or combined with a substance that causes lactic acidosis. It counts as cell-based. The conditions noted are these: A549; for Luminescence intensity (%), Berberine (10 μM) − / Luminescence intensity (%), Linezolid (200 μM) − / Luminescence intensity (%), Phenformin (100 μM) − / activity at 50 µM: candidate 50 μM alone, 24 h, vs negative control, mean ± SEM; for activity at 50 µM: Homo sapiens. The method, then: (§1) To identify the effects of administration of the candidate substances for lactic acidosis treatment as described in Example 1 in combination with the above-mentioned substances that cause lactic acidosis, A549 cells (cancer cells) or L132 cells (normal cells) were respectively seeded in 96- or 24-well plates at a concentration of 1×10^4 or 3×10^5 cells/well, and incubation was performed overnight. Administration of the candidate substance for acidosis treatment in combination with the substance that causes lactic acidosis was performed and incubation was further performed for 24 hours. For the candidate substances for acidosis treatment, each substance was administered at a uniform concentration of 50 μM; and for the substances that cause lactic acidosis, metformin was administered at 1 to 100 μM, isoniazid was administered at 1 to 500 μM, berberine was administered at 10 μM, linezolid was administered at 200 μM, and phenformin was administered at 100 μM. All substances were dissolved in dimethyl sulfoxide (DMSO, Sigma-Aldrich Corporation, St. Louis, Mo., USA), and the substances to be administered in combination were administered simultaneously. Subsequently, 50 μl of the cell culture solution obtained by being diluted with Dulbecco's Phosphate-Buffered Saline (DPBS; Wellgene, Korea), and 50 μl of the lactate assay reaction buffer (Promega, Madison, Wis., USA) were mixed and the mixture was added in a 96-well plate. Reaction was allowed to proceed at room temperature for 1 hour. Then, luminescence was measured with a spectrophotometer (Synergy HTX Multi-Reader; BioTek, Winooski, Vt., USA). At the same time, the number of cells in each sample was measured with a cell viability analysis kit (Cell Counting Kit-8; Dojindo Molecular Technologies, Inc., Kumamoto, Japan), and calculation was performed so that the lactic acid measurement value in each sample could be compared with that in the negative control for the same number of cells.

The test system of experiment [2] is L132 cells (normal cells). The experiment is described as follows: Lactate assay (luminescence) in L132 cells, candidate substance alone or combined with a substance that causes lactic acidosis. The conditions noted are these: L132; for Luminescence intensity (%), Berberine (10 μM) − / Luminescence intensity (%), Linezolid (200 μM) − / Luminescence intensity (%), Phenformin (100 μM) − / activity at 50 µM: candidate 50 μM alone, 24 h, vs negative control, mean ± SEM; for activity at 50 µM: Homo sapiens. In kind it is cell-based. The method, then: as §1

Setting [3] is: candidate 50 μM + berberine 10 μM, relative to berberine alone (PC).
[4] abbreviates: candidate 50 μM + linezolid 200 μM, relative to linezolid alone (PC).
Setting [5] is: candidate 50 μM + phenformin 100 μM, relative to phenformin alone (PC).
Setting [6] is: no berberine, read-out: Luminescence intensity (%), Berberine (10 μM) −.
Setting [7] is: no linezolid, read-out: Luminescence intensity (%), Linezolid (200 μM) −.
Where [8] appears, read: no phenformin, read-out: Luminescence intensity (%), Phenformin (100 μM) −.

For `Nc1c(O)cccc1C(=O)CC(N)C(=O)O` (racemic) [3-hydroxy-DL-kynurenine, 3-Hydroxy-DL-kynurenine], the “Lactic acid value vs. PC (%)” value in experiment [1] (setting [3]) is 92.55%; in experiment [1] (setting [4]), 83.68%; in experiment [1] (setting [5]), 91.34%; in experiment [2] (setting [3]), 87.31%; in experiment [2] (setting [4]) it was 86.39%; in experiment [2] (setting [5]), 91.76%. In addition, the “Lactic acid-decreasing rate vs. PC (%)” value in experiment [1] (setting [3]) worked out at 7.45%; in experiment [1] (setting [4]), 16.32%; in experiment [1] (setting [5]) it was 8.66%; in experiment [2] (setting [3]), 12.69%; in experiment [2] (setting [4]), 13.61%; in experiment [2] (setting [5]), 8.24%. For the same compound, the “Luminescence intensity (%), Berberine (10 μM) −” value in experiment [1] (no berberine) is reported as 91.52 ± 1.46 %; in experiment [2] (no berberine), 87.48 ± 1.65 %. The “Luminescence intensity (%), Linezolid (200 μM) −” value in experiment [1] (no linezolid) stood at 91.52 ± 1.46 %; in experiment [2] (no linezolid), 87.48 ± 1.65 %. Also, the “Luminescence intensity (%), Phenformin (100 μM) −” value in experiment [1] (no phenformin) is recorded as 91.52 ± 1.46 %; in experiment [2] (no phenformin), 87.48 ± 1.65 %.
`CCCCNC(=O)n1c(NC(=O)OC)nc2ccccc21` [Benomyl]: the “Lactic acid value vs. PC (%)” value in experiment [1] (setting [3]) is listed as 88.55%; in experiment [1] (setting [4]) it was 84.32%; in experiment [1] (setting [5]) it was 92.74%; in experiment [2] (setting [3]) it was 85.38%; in experiment [2] (setting [4]) it was 84.83%; in experiment [2] (setting [5]), 93.03%. The “Lactic acid-decreasing rate vs. PC (%)” value was found to be 11.45% in experiment [1] (setting [3]); 15.68% in experiment [1] (setting [4]); 7.26% in experiment [1] (setting [5]); 14.62% in experiment [2] (setting [3]); 15.17% in experiment [2] (setting [4]); 6.97% in experiment [2] (setting [5]). The activity at 50 µM in experiment [1] (setting [6]) is 87.7 ± 1.21%; in experiment [1] (setting [7]) it was 87.7 ± 1.21%; in experiment [1] (setting [8]), 87.7 ± 1.21%; in experiment [2] (setting [6]), 85.4 ± 1.55%; in experiment [2] (setting [7]), 85.4 ± 1.55%; in experiment [2] (setting [8]) it was 85.4 ± 1.55%.
In the case of `N.N.[Cl][Pt][Cl]` [CDDP, Cis-diamminedichloridoplatinum], the “Lactic acid value vs. PC (%)” value in experiment [1] (setting [3]) was found to be 74.20%; in experiment [1] (setting [4]), 78.37%; in experiment [1] (setting [5]), 80.03%; in experiment [2] (setting [3]), 71.42%; in experiment [2] (setting [4]) it was 68.28%; in experiment [2] (setting [5]), 83.98%. The “Lactic acid-decreasing rate vs. PC (%)” value worked out at 25.80% in experiment [1] (setting [3]); 21.63% in experiment [1] (setting [4]); 19.97% in experiment [1] (setting [5]); 28.58% in experiment [2] (setting [3]); 31.72% in experiment [2] (setting [4]); 16.02% in experiment [2] (setting [5]). Further, the “Luminescence intensity (%), Berberine (10 μM) −” value is given as 75.98 ± 2.34 % in experiment [1] (no berberine) and 76.97 ± 2.13 % in experiment [2] (no berberine). The “Luminescence intensity (%), Linezolid (200 μM) −” value in experiment [1] (no linezolid) was determined as 75.98 ± 2.34 %; in experiment [2] (no linezolid), 76.97 ± 2.13 %. Besides, the “Luminescence intensity (%), Phenformin (100 μM) −” value in experiment [1] (no phenformin) is recorded as 75.98 ± 2.34 %; in experiment [2] (no phenformin) it was 76.97 ± 2.13 %.
For `CS(=O)(=O)Nc1ccc(-c2coc3cc(OCc4cccc(C(=O)O)c4)ccc3c2=O)cc1` [CVT-10216, 3-[[[3-[4-[(methylsulfonyl)amino]phenyl]-4-oxo-4H-chromen-7-yl]oxy]methyl]benzoic acid], the “Lactic acid value vs. PC (%)” value in experiment [1] (setting [3]) worked out at 95.79%; in experiment [1] (setting [4]), 92.93%; in experiment [1] (setting [5]), 92.13%; in experiment [2] (setting [3]), 103.15%; in experiment [2] (setting [4]), 100.28%; in experiment [2] (setting [5]), 99.21%. Besides, the “Lactic acid-decreasing rate vs. PC (%)” value was 4.21% in experiment [1] (setting [3]); 7.07% in experiment [1] (setting [4]); 7.87% in experiment [1] (setting [5]); −3.15% in experiment [2] (setting [3]); −0.28% in experiment [2] (setting [4]); 0.79% in experiment [2] (setting [5]). The activity at 50 µM turned out to be 96.5 ± 1.04% in experiment [1] (setting [6]); 96.5 ± 1.04% in experiment [1] (setting [7]); 96.5 ± 1.04% in experiment [1] (setting [8]); 97.7 ± 1.1% in experiment [2] (setting [6]); 97.7 ± 1.1% in experiment [2] (setting [7]); 97.7 ± 1.1% in experiment [2] (setting [8]).
`CCCNC(=O)NS(=O)(=O)c1ccc(Cl)cc1` [Chlorpropamide]: the “Lactic acid value vs. PC (%)” value in experiment [1] (setting [3]) is on record as 90.69%; in experiment [1] (setting [4]) it was 86.81%; in experiment [1] (setting [5]), 94.87%; in experiment [2] (setting [3]), 102.38%; in experiment [2] (setting [4]), 90.11%; in experiment [2] (setting [5]) it was 96.68%. The “Lactic acid-decreasing rate vs. PC (%)” value is on record as 9.31% in experiment [1] (setting [3]); 13.19% in experiment [1] (setting [4]); 5.13% in experiment [1] (setting [5]); −2.38% in experiment [2] (setting [3]); 9.89% in experiment [2] (setting [4]); 3.32% in experiment [2] (setting [5]). Further, the activity at 50 µM in experiment [1] (setting [6]) worked out at 97 ± 1.24%; in experiment [1] (setting [7]), 97 ± 1.24%; in experiment [1] (setting [8]) it was 97 ± 1.24%; in experiment [2] (setting [6]) it was 92.4 ± 1.05%; in experiment [2] (setting [7]), 92.4 ± 1.05%; in experiment [2] (setting [8]), 92.4 ± 1.05%.
As for `CC(C)=CCCC(C)=CC=O` [Citral], the “Lactic acid value vs. PC (%)” value in experiment [1] (setting [3]) was determined as 95.67%; in experiment [1] (setting [4]) it was 103.20%; in experiment [1] (setting [5]), 93.80%; in experiment [2] (setting [3]), 102.03%; in experiment [2] (setting [4]), 102.02%; in experiment [2] (setting [5]), 99.57%. The “Lactic acid-decreasing rate vs. PC (%)” value in experiment [1] (setting [3]) was 4.33%; in experiment [1] (setting [4]) it was −3.20%; in experiment [1] (setting [5]), 6.20%; in experiment [2] (setting [3]) it was −2.03%; in experiment [2] (setting [4]) it was −2.02%; in experiment [2] (setting [5]), 0.43%. The activity at 50 µM in experiment [1] (setting [6]) is 100.5 ± 0.81%; in experiment [1] (setting [7]), 100.5 ± 0.81%; in experiment [1] (setting [8]), 100.5 ± 0.81%; in experiment [2] (setting [6]) it was 102.4 ± 0.98%; in experiment [2] (setting [7]), 102.4 ± 0.98%; in experiment [2] (setting [8]), 102.4 ± 0.98%.
For the compound `N#CN` [Cyanamide], the “Lactic acid value vs. PC (%)” value in experiment [1] (setting [3]) is reported as 96.56%; in experiment [1] (setting [4]) it was 87.76%; in experiment [1] (setting [5]), 98.83%; in experiment [2] (setting [3]), 99.86%; in experiment [2] (setting [4]), 88.99%; in experiment [2] (setting [5]), 98.19%. Further, the “Lactic acid-decreasing rate vs. PC (%)” value in experiment [1] (setting [3]) turned out to be 3.44%; in experiment [1] (setting [4]), 12.24%; in experiment [1] (setting [5]), 1.17%; in experiment [2] (setting [3]) it was 0.14%; in experiment [2] (setting [4]), 11.01%; in experiment [2] (setting [5]) it was 1.81%. For the same compound, the activity at 50 µM is 97.02 ± 0.81% in experiment [1] (setting [6]); 97.02 ± 0.81% in experiment [1] (setting [7]); 97.02 ± 0.81% in experiment [1] (setting [8]); 92.1 ± 1.56% in experiment [2] (setting [6]); 92.1 ± 1.56% in experiment [2] (setting [7]); 92.1 ± 1.56% in experiment [2] (setting [8]).
